Structures are written as SMILES.

Test [1] is described as follows: In vitro enzyme assay to detect hydrolysis of chlorophenol red-beta-D-[…] directly proportional to the number of Toxoplasma stably expressing beta-galactosidase. The following applies: for IC50: Toxoplasma gondii. In kind it is functional, organism-based, Toxoplasma gondii.
A further test deals with Schistosoma mansoni. In words: High throughput screening of compounds against Schistosoma mansoni motility. Also noted: dose or concentration left out as unconfirmed. Format: functional.
Test [2] is described as follows: microbe, parasite or virus in culture. The following applies: Mycobacterium tuberculosis, 72 h, read-out: pIC50 (converted).
Test [3] can be described thus: microbe, parasite or virus in culture. The following applies: Mycobacterium tuberculosis, 96 h, read-out: pIC50 (converted).
The next test has as its target ClpP1P2 (Mycobacterium tuberculosis (strain ATCC 25618 / H37Rv), UniProt P9WPC3+P9WPC5). Put plainly: in vitro assay to detect presence of AMC directly proportional to the activity of ClpP1P2. GHDDI collaboration. Format: functional.
A further test relates to Plasmodium falciparum. Put plainly: Calibr Malaria Delayed Death Assay SOP. Format: functional, organism-based.

ClpP1P2, sequence (P9WPC5 whole entry): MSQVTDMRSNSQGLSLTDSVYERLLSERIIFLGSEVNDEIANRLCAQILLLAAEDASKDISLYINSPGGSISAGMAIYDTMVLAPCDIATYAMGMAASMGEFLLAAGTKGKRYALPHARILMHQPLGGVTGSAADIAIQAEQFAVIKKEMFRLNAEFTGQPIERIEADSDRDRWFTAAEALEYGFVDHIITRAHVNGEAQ
ClpP1P2, sequence (P9WPC3 whole entry): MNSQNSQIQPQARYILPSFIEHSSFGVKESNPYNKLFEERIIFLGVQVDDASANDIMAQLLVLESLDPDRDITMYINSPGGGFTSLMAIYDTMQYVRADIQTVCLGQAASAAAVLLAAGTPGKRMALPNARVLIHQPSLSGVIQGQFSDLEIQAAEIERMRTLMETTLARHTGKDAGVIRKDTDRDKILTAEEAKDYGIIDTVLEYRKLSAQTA

In test [1], `Cc1cccc(NC(=O)C2CC(=O)n3cnnc3S2)c1` (configuration not stated) had a pIC50 of 4.363 and an IC50 of more than 50.1 µM.
`O=C(CSc1nncs1)N1CCN(Cc2ccc(Cl)s2)CC1`: the “Percent Effect” value in the test on Schistosoma mansoni is reported as -37.37%. The figures for the IC50 in test [2] and in test [3] were 48.2 µM and 41.1 µM, respectively.
In test [1], `O=C(NCCC1=CCCCC1)c1n[nH]c2c1CCCC2` gave a pIC50 of 5.49 and an IC50 of 1.7 µM.
In test [1], `COc1ccc(C(=O)N(CCO)Cc2ccccc2)c(OC)n1` gave a pIC50 of less than 4.3 and an IC50 of 29.2 µM.
For `COC(=O)CC(C1=Cc2ccccc2OC1)c1oc(C)cc(=O)c1O` (configuration not stated), in test [1], the pIC50 is 4.537 and the IC50 was more than 50.1 µM.
Consider `CCCc1nc2c(c(C)c(C)n2Cc2ccccn2)c(N)c1CC`, for which, in test [1], the pIC50 was 4.935 and the IC50 is 10.4 µM.
Regarding `CC(C)NC(=O)Nc1nc2c(s1)CN(C(=O)NCc1cccs1)CC2`, in test [1], the pIC50 was 4.581 and the IC50 was more than 50.1 µM.
In test [1], `c1nc(N2CCOCC2)nc2c1COCC21CCN(CC2CC2)C1` (configuration not stated) had a pIC50 of less than 4.3 and an IC50 of 44 µM.
In test [1], `Cn1nnc2c1C(COCC1CC1)CN(C(=O)Cc1cccs1)C2` (configuration not stated) showed a pIC50 of 4.541 and an IC50 of 30.9 µM.
The like results for `COC[C@H]1CCC[C@]12CN(Cc1cccc(C)n1)CCO2` were, in that order, 4.382 and more than 50.1 µM.
The like results for `CCN1C[C@H]2CCN(C(=O)NC)CC[C@H]2S1(=O)=O` were, in that order, 4.337 and more than 50.1 µM.
As for `CCCc1nnsc1C(=O)NCC1CCN(c2ccccn2)CC1`, the “Percent Effect” value in the test with Schistosoma mansoni is on record as -128.4%. For the same compound, the values for the IC50 in test [2] and in test [3] were more than 50.1 µM and 30.8 µM, respectively.
Consider `CCN(CCO)Cc1ccc(Br)c2cccnc12`, for which, in test [1], the pIC50 amounted to 5.613 and the IC50 is 2.26 µM.
For `N#Cc1c(Cl)nsc1NCc1cccnc1OC1CCCC1`, in test [1], the pIC50 was determined as 5.095 and the IC50 was 6.71 µM.
Regarding `CC(C(=O)Nc1sccc1C(N)=O)N(C)CCOc1ccccc1` (configuration not stated), in test [1], the pIC50 turned out to be 5.826 and the IC50 was 2.24 µM.
On to `Brc1cc2c(cc1CN1CCC(N3CCCCC3)CC1)OCCO2`, for which, in the test on Schistosoma mansoni, the “Percent Effect” value was -13%. For the same compound, the IC50 in test [2] is 19.9 µM; in test [3], more than 50.1 µM.
In the case of `NS(=O)(=O)N1CCc2ccc(NC(=O)Cc3ccc(F)cc3)cc21`, in the test with Schistosoma mansoni, the “Percent Effect” value is reported as -30.69%. The IC50 on ClpP1P2 is 27.5 µM.
For the compound `Cc1cnn(CC2CCCN2Cc2coc(-c3ccccc3)n2)c1` (configuration not stated), the “Percent Effect” value in the test with Schistosoma mansoni is on record as -1.507%. The IC50 was 22.6 µM in test [2] and more than 50.1 µM in test [3].
For `CN(CCc1cccs1)C1CCCN(Cc2noc(C3CC3)n2)C1` (configuration not stated), in the test on Schistosoma mansoni, the “Percent Effect” value is recorded as -35.96%. Also, the IC50 in test [2] and in test [3] was more than 50.1 µM each time.
With `COc1ccc(C2CCCN2S(=O)(=O)N(C)CC(C)C)cc1` (configuration not stated), in the test on Schistosoma mansoni, the “Percent Effect” value amounted to 29.94%. Also, the IC50 is 31.2 µM in test [2] and 13.2 µM in test [3].
Consider `CN(Cc1nccs1)c1nc(-c2ccccn2)nc2c1CCNCC2`, for which the “Percent Effect” value in the test on Schistosoma mansoni is given as -21.71%. This compound also returned a pIC50 in the test with Plasmodium falciparum of 6.065. The same compound showed an IC50 with Plasmodium falciparum (Plasmodium falciparum) of 0.882 µM.
In the case of `Cn1ncc2c(NCCC34CCCN3CCC4)nc(C3CCCC3)nc21`, the “Percent Effect” value in the test with Schistosoma mansoni is given as 79%. Besides, the IC50 is 42.3 µM in test [2] and 26.8 µM in test [3].
Regarding `CCc1c(C)sc(NC(=O)CN2CCN(CC)CC2)c1C(=O)OC`, the “Percent Effect” value in the test on Schistosoma mansoni worked out at 98.89%. The IC50 in test [2] was 2.52 µM; in test [3] it was 15.4 µM.
For `Cc1cc(N(C)Cc2cc(C)on2)n2nc(C)c(C)c2n1`, in that order: -4.677%, 13.5 µM and 33.7 µM.
In test [1], `CN(C)CCCNCCC(Cc1ccccc1)C1CCOC(C)(C)C1.O=C(O)C(=O)O` (configuration not stated) had a pIC50 of 5.163 and an IC50 of 4.6 µM.
As to `Cc1ccc(CN2Cc3nnn(C)c3C(COCc3ccccc3)C2)s1.O=C(O)C(F)(F)F` (configuration not stated), in test [1], the pIC50 is listed as 4.987 and the IC50 is 7.69 µM.

Broadly, the pIC50 is −log10 of the IC50, conventionally taken in molar units.

These data come from ChEMBL document CHEMBL3988442, “University of Dundee, Small-Polar-MMV Screening Library” (2021).
